Numbered stars: 1 amine (or outer) side, 2 acyl side, 3 side chain; on linkers, the order of the positions; unused ones are H or OH. Square brackets hold non-standard residues; d marks the D form. Primed or numbered codes have the meaning given here. Side chains are listed from the residue outwards. Ends that are not written are not given here. * marks the point of attachment. C18 diacid = O=C(O)CCCCCCCCCCCCCCCCC(=O)*; γGlu = O=C(O)[C@H](CCC(=O)[*:2])N[*:1]; Nle = CCCC[C@H](N)C(=O)O; PEG2′ = not defined here
Key:
[1] = tested on: human hepatic stellate cells (LX-2); test: In vitro inhibition of hepatic fibrosis: expression of activation marker α-SMA in LX-2 cells (Western Blot, β-actin internal reference); type: cell-based; settings: 10.0 μM, 48 hours, negative control (PBS) = 100%
How it was run: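 LX-2 cells grown in DMEM high glucose + 10% FBS to ~70% confluence, then exposed to polypeptides (in PBS) at different doses for 48 h; PBS-only negative control. α-SMA quantified by Western blot densitometry normalised to β-actin, expressed relative to control set at 100%.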

[2] = tested on: BDL-induced cholestasis hepatic fibrosis in rats; test: Bile duct ligation (BDL)-induced hepatic fibrosis in rats (biliary cirrhosis rat model); type: in vivo, SD rats; settings: 50 μg/kg subcutaneous every two days, 14 days
Description: 1. Experimental Drugs: polypeptide compounds 3, 6, 7, 10, 17, 20, 37, 38, 39, 40, 44, 46, Obeticholic Acid (Abbr. OCA, CAS:459789-99-2, purchased from Zhejiang Warrant Pharmaceutical Co., Ltd.) and Liraglutide. Saving condition was −20° C.
128 male SD rats with body weight of 200-230 g were randomly divided into sixteen groups, which were respectively:
SD rats with body weight of 200-230 g at SPF level were provided by Lanzhou University Laboratory Animal Center. After rats were quarantined in the room (SPF environment) for one week, model rat and rat in sham-operated group were subject to intraperitoneal injection and anesthesia with 0.6% pentobarbital sodium solution, and operation was performed on a super clean bench after anesthesia. Bilateral ligation was conducted on model rat after the common bile duct was separated, and ligation was not conducted on rat in sham-operated group, but only the common bile duct was separated. Administration was started from the next day of the operation.
Administration was started from the first day of the operation, and subcutaneous injection of compounds 3, 6, 7, 10, 17, 20, 37, 38, 39, 40, 44, 46 and Liraglutide with 50 μg/kg was performed every two days; intraperitoneal injection for the Obeticholic Acid administration group with 7.5 mg/kg was performed every day; as for the normal saline group, injection was performed every day. During the administration, changes in vital signs of rats were observed every day.
After the end of two weeks of administration cycle (14 days), the rats were killed to collect materials for subsequent biological determination experiments. The livers were taken out for HE dye, Sirius Red dye and IHC dye. Image-pro plus and Graph pad software were used for statistics.

| Substance | Relative expression of α-SMA (α-SMA/β-actin, %) [1] [%] | ALT in the serum (FIG. 6) [2] | BDL-induced hepatic fibrosis and inflammation (HE, Sirius Red, IHC sections) [2] | collagenous fiber deposition in liver (Sirius Red dyed sections, FIGS. 2, 4) [2] | content of hydroxyproline of the liver (FIG. 7) [2] | α-SMA in liver (IHC dyed sections, FIGS. 3, 5) [2] |
| --- | --- | --- | --- | --- | --- | --- |
| His-(D-Ser)-Gln-Gly-Thr-Phe-Thr-Ser-Asp-Tyr-Ser-Lys-Tyr-Leu-Asp-Lys(PEG2-PEG2-γGlu-CO(CH2)16CO2H)-Arg-Arg-Ala-Gln-Asp-Phe-Val-Gln-Trp-Leu-Leu-Asn-Thr-Gly-Gly-Pro-Ser-Ser-Gly-Ala-Pro-Pro-Pro-Ser-NH2 (H[dS]QGTFTSDYSKYLDK([PEG2′-PEG2′-γGlu-C18 diacid])RRAQDFVQWLLNTGGPSSGAPPPS-NH2) [Compound 39] | 41.68 | significantly inhibit | significantly reduce | significantly inhibit | significantly inhibit | significantly inhibit |
| His-(D-Ser)-Gln-Gly-Thr-Phe-Thr-Ser-Asp-Tyr-Ser-Lys-Tyr-Leu-Asp-Lys(PEG2-PEG2-γGlu-CO(CH2)16CO2H)-Arg-Arg-Ala-Gln-Asp-Phe-Val-Gln-Trp-Leu-Nle-Asn-Thr-Gly-Gly-Pro-Ser-Ser-Gly-Ala-Pro-Pro-Pro-Ser-NH2 (H[dS]QGTFTSDYSKYLDK([PEG2′-PEG2′-γGlu-C18 diacid])RRAQDFVQWL[Nle]NTGGPSSGAPPPS-NH2) [Compound 38] | 40.55 | significantly inhibit | significantly reduce | significantly inhibit | significantly inhibit | significantly inhibit |
| His-(D-Ser)-Gln-Gly-Thr-Phe-Thr-Ser-Asp-Tyr-Ser-Lys-Tyr-Leu-Asp-Ser-Lys(PEG2-PEG2-γGlu-CO(CH2)16CO2H)-Ala-Ala-His-Asp-Phe-Val-Glu-Trp-Leu-Leu-Arg-Ala-NH2 (H[dS]QGTFTSDYSKYLDSK([PEG2′-PEG2′-γGlu-C18 diacid])AAHDFVEWLLRA-NH2) [Compound 17] | 35.38 | significantly inhibit | significantly reduce | significantly inhibit | significantly inhibit | significantly inhibit |

Reference: patent publication US11419918B2, “Treatment of biliary cirrhosis based on oxyntomodulin analogue GLP-1R/GCGR dual-target agonist peptide” (Shenzhen Turier Biotech Co., Ltd., priority 2017, dated 2022)
